Earlier results, collected in patent US5702721A (LTS Lohmann Therapie-Systeme GmbH & Co. KG, priority 1989, dated 1997).

Settings: supersaturated solution resulting on evaporation of the highly volatile component of a mixture of volatile and non-volatile solvents

SMILES: COC(=O)C1=C(C)NC(C)=C(C(=O)OC)C1c1ccccc1[N+](=O)[O-] [nifedipine]
- skin penetration / resorption intensification: confirmed these effects

SMILES: C[C@]12C=CC(=O)C=C1[C@@H](F)C[C@H]1[C@@H]3C[C@@H](O)[C@](O)(C(=O)CO)[C@@]3(C)C[C@H](O)[C@@]12F [fluocinolone]
- skin penetration / resorption intensification: higher skin penetration
